Reference: patent US7910751B2, “Heterocyclidene acetamide derivative” (Mochida Pharmaceutical Co., Ltd., priority 2005, dated 2011)

Molecular target: T1, human TRPV1 (Homo sapiens, UniProt Q8NER1)
T1 construct: expressed in transfected cells; host or cells: CHO-K1
Experiment: Measurement of capsaicin-induced Ca influx in human TRPV1 transformed CHO cell line using FDSS-6000
Assay type: cell-based
Settings: concentration at which the capsaicin concentration-reaction curve is shifted two times to the right, human TRPV1 transformed CHO cells

T1 sequence (Q8NER1 whole entry): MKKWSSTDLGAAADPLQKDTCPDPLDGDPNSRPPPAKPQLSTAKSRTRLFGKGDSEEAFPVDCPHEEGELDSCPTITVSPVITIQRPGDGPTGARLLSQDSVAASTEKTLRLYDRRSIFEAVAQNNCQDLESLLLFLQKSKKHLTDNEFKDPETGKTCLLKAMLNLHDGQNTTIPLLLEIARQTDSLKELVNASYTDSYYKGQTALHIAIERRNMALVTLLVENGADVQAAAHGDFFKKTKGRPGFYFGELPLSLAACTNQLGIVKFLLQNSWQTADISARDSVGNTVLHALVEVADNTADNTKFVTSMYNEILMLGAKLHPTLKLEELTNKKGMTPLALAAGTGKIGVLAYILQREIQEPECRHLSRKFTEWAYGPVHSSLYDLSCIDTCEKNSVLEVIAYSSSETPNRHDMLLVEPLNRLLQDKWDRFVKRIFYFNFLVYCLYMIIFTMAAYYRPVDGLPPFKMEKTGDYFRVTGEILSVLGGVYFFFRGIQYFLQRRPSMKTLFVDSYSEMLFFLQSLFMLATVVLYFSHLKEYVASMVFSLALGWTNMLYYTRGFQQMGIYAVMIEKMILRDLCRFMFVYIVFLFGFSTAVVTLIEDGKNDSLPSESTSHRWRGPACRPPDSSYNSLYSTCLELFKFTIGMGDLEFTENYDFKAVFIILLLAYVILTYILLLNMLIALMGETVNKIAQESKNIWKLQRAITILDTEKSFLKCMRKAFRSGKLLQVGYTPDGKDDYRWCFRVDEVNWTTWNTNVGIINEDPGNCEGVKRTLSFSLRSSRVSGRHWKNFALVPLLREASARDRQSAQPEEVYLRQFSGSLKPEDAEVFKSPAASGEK

Row | SMILES | A2 VALUE
1 | CN1CCC/C(=C\C(=O)Nc2cccc3ccc(O)cc23)c2ccc(C(F)(F)F)cc21 [Example 198, (E)-2-(1-methyl-8-trifluoromethyl-1,2,3,4-tetrahydro-5H-benzo[b]azepin-5-ylidene)-N-(7-hydroxynaphthalen-1-yl)acetamide] | A (compounds of the present invention having an A2 value of less than 100 nM are represented by A)
2 | CC(C)CCC(=O)N1CC/C(=C\C(=O)Nc2cccc3c2CC(O)CC3)c2ccc(C(F)(F)F)cc21 (stereo not drawn) [Example 86, (E)-2-(1-(4-methylpentanoyl)-7-trifluoromethyl-2,3-dihydroquinolin-4(1H)-ylidene)-N-(7-hydroxy-5,6,7,8-tetrahydronaphthalen-1-yl)acetamide] | A (compounds of the present invention having an A2 value of less than 100 nM are represented by A)
3 | O=C(/C=C1\CCOc2cc(C(F)(F)F)ccc21)Nc1ccc2cccnc2c1 [Example 8, (E)-2-(7-trifluoromethyl-chroman-4-ylidene)-N-(quinolin-7-yl)acetamide] | A (compounds of the present invention having an A2 value of less than 100 nM are represented by A)
4 | O=C(/C=C1\CCN(C(=O)C2CCC(C(F)(F)F)CC2)c2cc(C(F)(F)F)ccc21)Nc1cccc2c1CC(O)CC2 (stereo not drawn) [Example 110] | A (compounds of the present invention having an A2 value of less than 100 nM are represented by A)
5 | O=C(/C=C1\CCCOc2cc(C(F)(F)F)ccc21)Nc1cccc2c1CC(O)CN2 (stereo not drawn) [Example 219, (E)-2-(8-trifluoromethyl-3,4-dihydrobenzo[b]oxepin-5(2H)-ylidene)-N-(3-hydroxy-1,2,3,4-tetrahydroquinolin-5-yl)acetamide] | A (compounds of the present invention having an A2 value of less than 100 nM are represented by A)
6 | Cc1cc(=O)oc2cc(NC(=O)/C=C3\CCCOc4cc(C(F)(F)F)ccc43)ccc12 [Example 21, (E)-2-(8-trifluoromethyl-3,4-dihydrobenzo[b]oxepin-5(2H)-ylidene)-N-(4-methyl-2-oxo-2H-chromen-7-yl)acetamide] | B (compounds having an A2 value of 100 nM or more are represented by B)
7 | O=C(/C=C1\CCOc2cc(C(F)(F)F)c(F)cc21)Nc1cccc2c1CC(O)CN2 (stereo not drawn) [Example 215, (E)-2-(6-fluoro-7-trifluoromethyl-chroman-4-ylidene)-N-(3-hydroxy-1,2,3,4-tetrahydroquinolin-5-yl)acetamide] | A (compounds of the present invention having an A2 value of less than 100 nM are represented by A)
8 | O=C(/C=C1\CCOc2cc(OC(F)(F)C(F)F)ccc21)Nc1cccc2c1CC(O)CN2 (stereo not drawn) [Example 213, (E)-2-(7-(1,1,2,2-tetrafluoroethoxy)-chroman-4-ylidene)-N-(3-hydroxy-1,2,3,4-tetrahydroquinolin-5-yl)acetamide] | A (compounds of the present invention having an A2 value of less than 100 nM are represented by A)
9 | O=C(/C=C1\CCOc2cc(C(F)(F)F)ccc21)Nc1cccc2c1CC(O)CN2 (stereo not drawn) [Example 122, (E)-N-(3-hydroxy-1,2,3,4-tetrahydroquinolin-5-yl)-2-(7-trifluoromethyl-chroman-4-ylidene)acetamide] | A (compounds of the present invention having an A2 value of less than 100 nM are represented by A)
10 | Cc1ccc(S(=O)(=O)N2CC/C(=C\C(=O)Nc3ccc4cccnc4c3)c3ccc(C(F)(F)F)cc32)cc1 [Example 98, (E)-2-(7-trifluoromethyl-2,3-dihydro-1-(4-methylbenzenesulfonyl)quinolin-4(1H)-ylidene)-N-(quinolin-7-yl)acetamide] | A (compounds of the present invention having an A2 value of less than 100 nM are represented by A)
11 | O=C(/C=C1\CCCOc2cc(C(F)(F)F)ccc21)Nc1cccc2c1CC(O)CN2 (stereo not drawn) [Example 68, (E)-2-(8-trifluoromethyl-3,4-dihydrobenzo[b]oxepin-5(2H)-ylidene)-N-(3-hydroxy-1,2,3,4-tetrahydroquinolin-5-yl)acetamide] | A (compounds of the present invention having an A2 value of less than 100 nM are represented by A)
12 | CN1CCC/C(=C\C(=O)Nc2cccc3c2CC(O)CC3)c2ccc(C(F)(F)F)cc21 (stereo not drawn) [Example 199, (E)-2-(1-methyl-8-trifluoromethyl-1,2,3,4-tetrahydro-5H-benzo[b]azepin-5-ylidene)-N-(7-hydroxy-5,6,7,8-tetrahydronaphthalen-1-yl)acetamide] | A (compounds of the present invention having an A2 value of less than 100 nM are represented by A)
13 | O=C(/C=C1\CCOc2cc(C(F)(F)F)ccc21)Nc1cccc2c1CC(O)CC2 (stereo not drawn) [Example 70, (E)-2-(7-trifluoromethyl-chroman-4-ylidene)-N-(7-hydroxy-5,6,7,8-tetrahydronaphthalen-1-yl)acetamide] | A (compounds of the present invention having an A2 value of less than 100 nM are represented by A)
14 | O=C(/C=C1\CCCOc2cc(C(F)(F)F)ccc21)Nc1ccc2[nH]ccc2c1 [Example 138, (E)-2-(8-trifluoromethyl-3,4-dihydrobenzo[b]oxepin-5(2H)-ylidene)-N-(indol-5-yl)acetamide] | A (compounds of the present invention having an A2 value of less than 100 nM are represented by A)
15 | COCCC(=O)N1CC/C(=C\C(=O)Nc2ccc3cccnc3c2)c2ccc(C(F)(F)F)cc21 [Example 100, (E)-2-(7-trifluoromethyl-2,3-dihydro-1-(3-methoxypropanoyl)quinolin-4(1H)-ylidene)-N-(quinolin-7-yl)acetamide] | A (compounds of the present invention having an A2 value of less than 100 nM are represented by A)
16 | O=C(/C=C1\CCCOc2cc(C(F)(F)F)ccc21)Nc1ccc2cccnc2c1 [Example 13, (E)-2-(8-trifluoromethyl-3,4-dihydrobenzo[b]oxepin-5(2H)-ylidene)-N-(quinolin-7-yl)acetamide] | A (compounds of the present invention having an A2 value of less than 100 nM are represented by A)
17 | O=C(/C=C1\CCN(C(=O)C2CCCCC2)c2cc(C(F)(F)F)ccc21)Nc1ccc2cccnc2c1 [Example 52, (E)-2-(7-trifluoromethyl-2,3-dihydro-1-cyclohexanecarbonylquinolin-4(1H)-ylidene)-N-(quinolin-7-yl)acetamide] | A (compounds of the present invention having an A2 value of less than 100 nM are represented by A)
18 | CC(C)(C)c1ccc(NC(=O)/C=C2\CCCOc3cc(C(F)(F)F)ccc32)cc1 [Example 14, (E)-N-(4-tert-butylphenyl)-2-(8-trifluoromethyl-3,4-dihydrobenzo[b]oxepin-5(2H)-ylidene)acetamide] | A (compounds of the present invention having an A2 value of less than 100 nM are represented by A)
19 | COc1ccc2cccc(NC(=O)/C=C3\CCCOc4cc(C(F)(F)F)ccc43)c2c1 [Example 129, (E)-2-(8-trifluoromethyl-3,4-dihydrobenzo[b]oxepin-5(2H)-ylidene)-N-(7-methoxynaphthalen-1-yl)acetamide] | B (compounds having an A2 value of 100 nM or more are represented by B)
20 | CC1(C)C/C(=C\C(=O)Nc2cccc3c2CC(O)CC3)c2ccc(C(F)(F)F)cc2O1 (stereo not drawn) [Example 242, (E)-2-(7-trifluoromethyl-2,2-dimethylchroman-4-ylidene)-N-(7-hydroxy-5,6,7,8-tetrahydronaphthalen-1-yl)acetamide] | A (compounds of the present invention having an A2 value of less than 100 nM are represented by A)
21 | O=C(/C=C1\CCCN(CC2CCCC2)c2cc(C(F)(F)F)ccc21)Nc1ccc2cccnc2c1 [Example 197, (E)-2-(1-cyclopentylmethyl-8-trifluoromethyl-1,2,3,4-tetrahydro-5H-benzo[b]azepin-5-ylidene)-N-(quinolin-7-yl)acetamide] | A (compounds of the present invention having an A2 value of less than 100 nM are represented by A)
22 | O=C(/C=C1\CCOc2cc(C(F)(F)F)ccc21)Nc1cccc2c1CC(O)CO2 (stereo not drawn) [Example 125, (E)-N-(3-hydroxy-chroman-5-yl)-2-(7-trifluoromethyl-chroman-4-ylidene)acetamide] | A (compounds of the present invention having an A2 value of less than 100 nM are represented by A)
23 | CC(CNC(=O)/C=C1\CCCOc2cc(C(F)(F)F)ccc21)c1cccc2c1CC(O)CC2 (stereo not drawn) [Example 227, (E)-2-(8-trifluoromethyl-3,4-dihydrobenzo[b]oxepin-5(2H)-ylidene)-N-(2-(7-hydroxy-5,6,7,8-tetrahydronaphthalen-1-yl)propyl)acetamide] | A (compounds of the present invention having an A2 value of less than 100 nM are represented by A)
24 | CC(NC(=O)/C=C1\CCCOc2cc(C(F)(F)F)ccc21)c1ccccn1 (stereo not drawn) [Example 30, (E)-2-(8-trifluoromethyl-3,4-dihydrobenzo[b]oxepin-5(2H)-ylidene)-N-(1-(pyridin-2-yl)ethyl)acetamide] | B (compounds having an A2 value of 100 nM or more are represented by B)
25 | O=C(/C=C1\CCCOc2cc(C(F)(F)F)ccc21)Nc1ccc2c(c1)OC(F)(F)O2 [Example 143, (E)-2-(8-trifluoromethyl-3,4-dihydrobenzo[b]oxepin-5(2H)-ylidene)-N-(2,2-difluoro-1,3-benzodioxol-5-yl)acetamide] | B (compounds having an A2 value of 100 nM or more are represented by B)
26 | Cn1nc(NC(=O)/C=C2\CCCOc3cc(C(F)(F)F)ccc32)c2cccnc21 [Example 41, (E)-2-(8-trifluoromethyl-3,4-dihydrobenzo[b]oxepin-5(2H)-ylidene)-N-(1-methyl-1H-pyrazolo[3,4-b]pyridin-3-yl)acetamide] | B (compounds having an A2 value of 100 nM or more are represented by B)
27 | O=C(/C=C1\CCN(c2ccc(Cl)cc2)c2cc(C(F)(F)F)ccc21)Nc1ccc2cccnc2c1 [Example 57, (E)-2-(1-(4-chlorophenyl)-7-trifluoromethyl-2,3-dihydro-4(1H)-ylidene)-N-(quinolin-7-yl)acetamide] | A (compounds of the present invention having an A2 value of less than 100 nM are represented by A)
